The assay deals with HGADFN167 Lmna^G608G/G608G fibroblasts. Briefly: Immunoblot and immunocytofluorescence analysis in human progeroid cells (Ki‐67, nuclei, pH2AX, H3K9Me3). In kind it is cell-based. Particulars: HGADFN167, 5 µM, 20 days. The text has this:
FIGURE 6 (A) Representative cropped immunoblots and progerin quantification in human Lmna^G608G/G608G fibroblasts. MW, molecular weight (in kDa) markers. […] (B) PROTAC 2 increases cell proliferation (upper panels) and decreases the number of misshapen nuclei (lower panels). White arrows highlight selected misshapen nuclei. (C) PROTAC 2 decreases senescence‐associated β‐galactosidase (SA‐βgal) activity, interleukin (IL) 6, p16 and p21 senescent markers. Bar graphs show mean±sem of 2 (SA‐βgal and p21) or 3 (IL‐6 and p16) independent experiments performed in triplicate. (D) PROTAC 2 decreases phosphorylated histone 2AX (pH2AX) and increases trimethylated histone 3 (H3K9Me3) levels. (E) PROTAC 2 increases the oxygen consumption rate (OCR), ATP production and the number of healthy mitochondria in human progeroid cells. Bar graphs show mean±sem of 2 independent experiments performed in duplicate. In all cases, HGADFN167 Lmna^G608G/G608G (G608G) or HGFDFN168 Lmna^+/+ (WT) fibroblasts, provided by the Progeria Research Foundation, were incubated with vehicle or 2 (5 µM) for 20 days. Data were analysed using one‐way ANOVA followed by Dunnett's post–hoc test vs vehicle (panel A) or vs G608G cells (panels B‐E). ^*, p < 0.05; ^**, p < 0.01; ^***, p < 0.001; ^****, p < 0.0001. Microscopy images are representative of 2 independent experiments and corresponding bar graphs show mean±sem of 4 fields from 2 independent experiments. […]
compound exposure. Then, cells were incubated with compound of interest or DMSO for the appropriate time and lysed with cold laemmli buffer (50 mM Tris-HCl pH 7.4, 150 mM NaCl, 1% Igepal) with a mixture of protease and phosphatase inhibitors (1 mM PMSF, 10 mM NaF, 0.3 mg/mL CalyculinA, 1 mM sodium orthovanadate, 10 mM β-glycerol-phosphate; all from Sigma-Aldrich and complete protease inhibitor cocktail, from Roche). Proteins were denatured at 95 ᵒC for 5 min and the lysates were immediately used or stored at -20 ᵒC until use. Samples were analysed by electrophoresis in polyacrylamide gels (All Kd SDS-PAGE, BioRad) and the proteins transferred to nitrocellulose membranes (GE Healthcare, Amersham). After 1 h of incubation in blocking buffer [20 mM Tris pH 7.6, 150 mM NaCl and 0.1% Tween-20 (TBS-T) with 5% of bovine serum albumin (BSA)], blots were incubated overnight at 4 ᵒC with the corresponding primary antibody: anti-phospho-histone 2AX (Ser139) (EMD Millipore, […]
GAPDH (Cell Signaling, 2118S, 1:5000) and anti-actin (Santa Cruz Biotechnology, sc-376248, 1:500) as antibodies for loading control. Then, membranes were washed (3x10 min) with TBS-T and incubated with the corresponding secondary antibody conjugated with peroxidase (Sigma- Aldrich) for 1 h at rt. […] The bands were quantified by densitometry using the […]

On to `CC1(C)Oc2cc3oc(=O)ccc3cc2C[C@@H]1OC(=O)CCCCCNc1cccc2c1C(=O)N(C1CCC(=O)NC1=O)C2=O` (stereo partly shown) [compound 2], for which the H3K9Me3 levels result is on record as “significantly increased H3K9Me3 levels”, the “cell proliferation (Ki‐67 expression)” value is listed as “enhances cell proliferation”, the “number of misshapen nuclei” value was “significantly reduced the number of misshapen nuclei” and the pH2AX levels result is on record as “reduced pH2AX levels to those observed in WT cells”.
